Laboratory results published in patent publication US20240293351A1, “METHODS OF ADMINISTERING SYNTHETIC TRITERPENOIDS” (REATA PHARMACEUTICALS HOLDINGS, LLC, priority 2020, published 2024).
“Also recorded” adds a separate entry of the source. Like-named read-outs stand apart in the source and are kept apart here.

Columns and labels:
[1] = cited from earlier work
[2] = Drug-drug interaction study: bardoxolone methyl alone and with itraconazole in healthy volunteers; conditions: itraconazole alone, 200 mg daily (Period 2)
[3] = Hygroscopicity of RTA 408 solid forms (DVS, TGA-MS); assay type: physicochemical
[4] = Chemical stability of RTA 408 amorphous form in organic solvents and aqueous media; assay type: physicochemical; conditions: 1 mg/mL; acetone, EtOAc, MeOH, MeCN, 1% aq. Tween 80, SDS, CTAB; 6 h, 24 h, 2 d, 7 d
Procedure: The chemical stability of the amorphous form was investigated in organic solvents, including acetone, EtOAc, MeOH, and MeCN, as well as different aqueous media (e.g., 1% aq. Tween 80, 1% aq. SDS, 1% aq. CTAB) at a concentration of 1 mg/mL at time points 6 h, 24 h, 2 d, and 7 d.

[5] = Storage stability of RTA 408 amorphous form under elevated temperature and humidity (PXRD); assay type: physicochemical; conditions: open at 25° C./62% r.h. and 40° C./75% r.h., closed at 60° C. and 80° C., up to four weeks
Procedure: In addition, the stability of the amorphous form was investigated by storage under elevated temperature and humidity conditions (open at 25° C./62% r.h. and 40° C./75% r.h. and closed at 60° C. and 80° C.). After one week, two weeks, and four weeks, the stored samples were analyzed by PXRD.

HIV = conditions: macrophages; cited from earlier work
[6] = cited from earlier work; for Occurrence of Death / Occurrence of ESRD: ITT
CYP3A4/5 [7] = conditions: human liver microsomes and recombinantly-expressed CYPs
cerebral granule neurons = conditions: cited from earlier work
CYP3A4/5 [8] = test: in vitro; conditions: human, human liver microsomes
[9] = Phase 1 drug-drug interaction study: omaveloxolone alone and with itraconazole in healthy subjects
[10] = monkey, in vivo; cited from earlier work
[11] = ASCEND, avosentan 25 mg (N = 455)
[12] = ASCEND, avosentan 50 mg (N = 478)
[13] = 150 mg omaveloxolone alone (Reference), plasma
[14] = 200 mg itraconazole QD + 150 mg omaveloxolone (Test), plasma
[15] = Test vs Reference statistical analysis
[16] = Test: 200 mg itraconazole QD + 150 mg omaveloxolone, n = 13
[17] = omaveloxolone + itraconazole vs omaveloxolone alone

SMILES: CCC(C)n1ncn(-c2ccc(N3CCN(c4ccc(OCC5COC(Cn6cncn6)(c6ccc(Cl)cc6Cl)O5)cc4)CC3)cc2)c1=O (stereo not shown) [itraconazole]
- Peak plasma level at steady state ([1]; 100 mg once daily): 0.5 µg/mL
- Peak plasma level at steady state ([1]; 200 mg once daily): 1.1 µg/mL
- Peak plasma level at steady state ([1]; 200 mg twice daily): 2.0 µg/mL
- Renal excretion of itraconazole and hydroxy-itraconazole ([1]; in vivo): less than 1 % of an intravenous dose
- Time to peak steady state ([1]; repeated administration): about 15 days
- Subjects with a TEAE, n (%) [2]: 1 (6.7%)

SMILES: CC1(C)CC[C@]2(NC(=O)C(C)(F)F)CC[C@]3(C)[C@H](C(=O)C=C4[C@@]5(C)C=C(C#N)C(=O)C(C)(C)[C@@H]5CC[C@]43C)[C@@H]2C1 [RTA 408 amorphous form]
- Hygroscopicity, Δm ([3]; DVS, 50%→85% r.h.): +0.4%
- Chemical stability, decomposition [4]: Decomposition ≥1% was observed only for solutions in MeCN after 7 days and for suspensions in the 1% aqueous Tween 80 medium
- Stability under elevated temperature and humidity conditions [5]: stable for at least four weeks; also recorded: None of the samples differed from the amorphous starting material

SMILES: CC1(C)CC[C@]2(C(=O)O)CC[C@]3(C)[C@H](C(=O)C=C4[C@@]5(C)C=C(C#N)C(=O)C(C)(C)[C@@H]5CC[C@]43C)[C@@H]2C1 [CDDO, 2-cyano-3,12-dioxooleane-1,9(11)-dien-28-oic acid]
- Replication of HIV (HIV): can inhibit the replication of HIV in macrophages

SMILES: COc1ccccc1Oc1c(NS(=O)(=O)c2ccc(C)cn2)nc(-c2ccncc2)nc1OC [avosentan]
- Occurrence of Death [6, 11]: 3.6%
- Occurrence of ESRD [6, 11]: 4.4%
- Occurrence of Death [6, 12]: 4.6%
- Occurrence of ESRD [6, 12]: 5.0%
- Death ([6]; ASCEND): modest, non-significant increase in death
- ESRD events ([6]; ASCEND): small, numerical reduction in ESRD events
- Risk of congestive heart failure (CHF) ([6]; human, in vivo): approximate three-fold increase

SMILES: CC1(C)CC[C@]2(NC(=O)C(C)(F)F)CC[C@]3(C)[C@H](C(=O)C=C4[C@@]5(C)C=C(C#N)C(=O)C(C)(C)[C@@H]5CC[C@]43C)[C@@H]2C1 [Omaveloxolone]
- Metabolizing enzyme (CYP3A4/5 [7]): metabolized by CYP3A4
- Protection from hydrogen peroxide-induced oxidative stress (cerebral granule neurons): significant protection
- Km (CYP3A4/5 [8]): 1.12 µM
- AUC0-t, geometric mean [9, 13]: 1730 ng·h/mL
- AUC0-∞, geometric mean [9, 13]: 1730 ng·h/mL
- CL/F, geometric mean [9, 13]: 86.7 L/h
- Cmax, geometric mean [9, 13]: 43.0 ng/mL
- t1/2, geometric mean [9, 13]: 89.8 h
- Increase in systemic exposure, AUC0-∞, with itraconazole ([9]; 150 mg, itraconazole 200 mg QD): approximately 4 fold
- Increase in systemic exposure, Cmax, with itraconazole ([9]; 150 mg, itraconazole 200 mg QD): ~3 fold
- Ratio (90% CI) of geometric LS means, AUC0-∞ (with itraconazole vs alone) ([9]; 150 mg, itraconazole 200 mg QD): 4.12 (3.48, 4.87)
- Ratio (90% CI) of geometric LS means, Cmax (with itraconazole vs alone) ([9]; 150 mg, itraconazole 200 mg QD): 2.77 (2.17, 3.54)
- AUC0-t, geometric mean [9, 14]: 6340 ng·h/mL
- AUC0-∞, geometric mean [9, 14]: 7280 ng·h/mL
- CL/F, geometric mean [9, 14]: 20.6 L/h
- Cmax, geometric mean [9, 14]: 116 ng/mL
- t1/2, geometric mean [9, 14]: 78.1 h
- AUC0-∞, GLSM ([9]; Reference: 150 mg omaveloxolone alone, n = 14): 1730 ng·h/mL
- Cmax, GLSM ([9]; Reference: 150 mg omaveloxolone alone, n = 15): 43.0 ng/mL
- AUC0-∞, Within-subject CV % [9, 15]: 24.4%
- Cmax, Within-subject CV % [9, 15]: 36.8%
- AUC0-∞, GLSM [9, 16]: 7130 ng·h/mL
- Cmax, GLSM [9, 16]: 119 ng/mL
- half-life ([9]; both, human, plasma, oral, 150 mg): 89.8 h
- Tmax ([9]; both, human, plasma, oral, 150 mg, Median Tmax (min-max), 150 mg single dose, alone): 12 h
- Tmax ([9]; both, human, plasma, oral, 150 mg, tmax, median, Reference: 150 mg omaveloxolone alone, n = 15, Wilcoxon signed rank analysis): 8 h
- Tmax ([9]; both, human, plasma, oral, Median Tmax (min-max), 150 mg co-administered with 200 mg itraconazole QD): 6 h
- Tmax ([9]; both, human, plasma, oral, tmax, median, Test: 200 mg itraconazole QD + 150 mg omaveloxolone, n = 13, Wilcoxon signed rank analysis): 6 h
- Within-subject variability of AUC0-∞, geometric CV % ([9]; human, in vivo): 24.4%
- Within-subject variability of Cmax, geometric CV % ([9]; human, in vivo): 36.8%
- AUC0-∞, Ratio of GLSMs (Test:Reference) [9, 17]: 4.12
- Cmax, Ratio of GLSMs (Test:Reference) [9, 17]: 2.77
- Subjects reporting TEAEs ([9]; omaveloxolone alone, 15 subjects): 2 subjects
- Subjects reporting TEAEs ([9]; omaveloxolone in combination with itraconazole): no subjects reported TEAEs
- Clinical laboratory evaluations, vital signs, ECG parameters ([9]; whole study): no clinically significant findings
- Deaths or SAEs ([9]; whole study): no deaths or SAEs

SMILES: CC1(C)CC[C@]2(NC(=O)C(C)(F)F)CC[C@]3(C)[C@H](C(=O)C=C4[C@@]5(C)C=C(C#N)C(=O)C(C)(C)[C@@H]5CC[C@]43C)[C@@H]2C1
- Hygroscopicity, mass gain ([3]; from 50% r.h. to 85% r.h.): ~0.7 wt.-%

SMILES: COC(=O)[C@]12CCC(C)(C)C[C@H]1[C@H]1C(=O)C=C3[C@@]4(C)C=C(C#N)C(=O)C(C)(C)[C@@H]4CC[C@@]3(C)[C@]1(C)CC2 [Form B CDDO-Me]
- Oral bioavailability [10]: higher than that of Form A
